# In US8338565B2, “Macrocyclic compounds for inhibition of tumor necrosis factor alpha” (Ensemble Therapeutics Corporation, priority 2008, dated 2012):
# Numbered stars: 1 amine (or outer) side, 2 acyl side, 3 side chain; on linkers, the order of the positions; unused ones are H or OH. Bridge positions count the residues as written; N and C are the ends. Square brackets hold non-standard residues; d marks the D form. Peptide text beside a SMILES is read from it. Tartaroyl(2R,3R-(OAc)2) = CC(=O)O[C@@H](C(=O)[*:1])[C@@H](OC(C)=O)C(=O)[*:2]; Phe(4-COOH) = N[C@@H](Cc1ccc(C(=O)O)cc1)C(=O)O; Phe(2,4-Cl2) = N[C@@H](Cc1ccc(Cl)cc1Cl)C(=O)O; Bip = N[C@@H](Cc1ccc(-c2ccccc2)cc1)C(=O)O; dBip = N[C@H](Cc1ccc(-c2ccccc2)cc1)C(=O)O; dPhe(4-NH2) = Nc1ccc(C[C@@H](N)C(=O)O)cc1; dPhe(4-Br) = N[C@H](Cc1ccc(Br)cc1)C(=O)O; Phe(4-NH2) = Nc1ccc(C[C@H](N)C(=O)O)cc1; d(hPhe) = N[C@H](CCc1ccccc1)C(=O)O; hPhe = N[C@@H](CCc1ccccc1)C(=O)O; d3Pal = N[C@H](Cc1cccnc1)C(=O)O; 2Thi = N[C@@H](Cc1cccs1)C(=O)O; d2Thi = N[C@H](Cc1cccs1)C(=O)O; d3Thi = N[C@H](Cc1ccsc1)C(=O)O; dCha = N[C@H](CC1CCCCC1)C(=O)O; dPhg = N[C@@H](C(=O)O)c1ccccc1; Suc = O=C(CCC(=O)[*:2])[*:1]; Dap = NC[C@H](N)C(=O)O
# Target: T1, TNFα / TNFα receptor (TNFα R1/Fc) (Homo sapiens, UniProt P01375)
# T1 construct: purchased R&D Systems
# Test: Inhibition of binding of TNFα to the TNFα receptor (plate ELISA competition)
# Settings: Activity (IC50, inhibition of TNFα binding to TNFα R1/Fc), Table 2
# Summary of the method: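 Compound dilutions were preincubated 30 min at RT with 8.33 nM TNFα R1/Fc in PBST with 2% DMSO, then added to wells coated with 15 nM TNFα for 30 min. Bound receptor was detected with HRP anti-human Fc and TMB, read as A450.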
# T1 sequence (P01375 77-233 limits assumed, species assumed): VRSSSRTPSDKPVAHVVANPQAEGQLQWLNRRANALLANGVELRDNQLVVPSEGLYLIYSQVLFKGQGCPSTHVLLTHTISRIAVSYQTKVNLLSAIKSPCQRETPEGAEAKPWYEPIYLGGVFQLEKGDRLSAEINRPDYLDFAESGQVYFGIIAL
row,Structure (SMILES),IC50 [µM]
1,O=C1COc2ccc(cc2)C[C@@H](C(=O)NCCO)NC(=O)[C@H](Cc2ccccc2)NC(=O)[C@H](Cc2ccc(-c3ccccc3)cc2)NC(=O)[C@H](Cc2cccs2)N1 [Compound 338],10 to 30

# Same assay, conditions: Table 2; read-out: Activity (IC50, inhibition of TNFα binding to TNFα R1/Fc)
row,Structure (SMILES),IC50 [µM]
1,O=C1COc2ccc(cc2)C[C@@H](C(=O)O)NC(=O)[C@H](Cc2cccc(F)c2)NC(=O)[C@@H](Cc2ccc(-c3ccccc3)cc2)NC(=O)[C@H](Cc2cccs2)N1 [Compound 626],> 100
2,CC(=O)N[C@H]1CNC(=O)c2ccc(cc2)C[C@@H](C(=O)O)NC(=O)[C@@H](Cc2ccccc2)NC(=O)[C@H](Cc2ccc(-c3ccccc3)cc2)NC(=O)[C@@H](CCc2ccccc2)NC1=O [Compound 266] (Ac-[Dap][d(hPhe)][Bip][dF][Phe(4-COOH)]-OH; lactam 1-5),> 100
3,O=C1CCC(=O)N[C@H](Cc2cccs2)C(=O)N[C@@H](Cc2ccc(-c3ccccc3)cc2)C(=O)N[C@H](Cc2cccs2)C(=O)N[C@H](C(=O)O)Cc2ccc(cc2)N1 [Compound 74] ([d2Thi][Bip][d2Thi][Phe(4-NH2)]-OH; linker N-4 via Suc),30 to 100
4,O=C1CCC(=O)N[C@H](Cc2cccs2)C(=O)N[C@@H](Cc2ccc(-c3ccccc3)cc2)C(=O)N[C@@H](CO)C(=O)N[C@H](C(=O)O)Cc2ccc(cc2)N1 [Compound 60] ([d2Thi][Bip]S[Phe(4-NH2)]-OH; linker N-4 via Suc),> 100
5,O=C1COc2ccc(cc2)C[C@@H](C(=O)O)NC(=O)[C@@H](CCc2ccccc2)NC(=O)[C@H](Cc2ccc(-c3ccccc3)cc2)NC(=O)[C@@H](Cc2ccc(F)c(F)c2)N1 [Compound 524],10 to 30
6,O=C1COc2ccc(cc2)C[C@@H](C(=O)O)NC(=O)[C@H](CCc2ccccc2)NC(=O)[C@@H](Cc2ccc(-c3ccccc3)cc2)NC(=O)[C@H](Cc2ccc(Cl)cc2Cl)N1 [Compound 697],< 10
7,O=C1CCC(=O)N[C@H](c2ccccc2)C(=O)N[C@@H](Cc2ccc(-c3ccccc3)cc2)C(=O)N[C@H](Cc2ccccc2)C(=O)N[C@H](C(=O)O)Cc2ccc(cc2)N1 [Compound 120] ([dPhg][Bip][dF][Phe(4-NH2)]-OH; linker N-4 via Suc),> 100
8,C[C@H](NC(=O)[C@@H]1Cc2ccc(cc2)NC(=O)CCC(=O)N[C@H](Cc2cccs2)C(=O)N[C@@H](Cc2ccc(-c3ccccc3)cc2)C(=O)N[C@H](CCc2ccccc2)C(=O)N1)C(=O)O [Compound 447] ([d2Thi][Bip][d(hPhe)][Phe(4-NH2)]A-OH; linker N-4 via Suc),> 100
9,"CC(=O)O[C@H]1C(=O)Nc2ccc(cc2)C[C@H](C(=O)N[C@@H](Cc2ccccc2)C(=O)O)NC(=O)[C@H](Cc2ccccc2)NC(=O)[C@@H](Cc2ccc(Br)cc2)NC(=O)[C@H](Cc2cccs2)NC(=O)[C@@H]1OC(C)=O [Compound 417] ([2Thi][dPhe(4-Br)]F[dPhe(4-NH2)]F-OH; linker N-4 via Tartaroyl(2R,3R-(OAc)2))",> 100
10,O=C1COc2ccc(cc2)C[C@@H](C(=O)O)NC(=O)[C@H](CCc2ccccc2)NC(=O)[C@@H](Cc2ccc(-c3ccccc3)cc2)NC(=O)C(c2ccccc2)N1 (some centres unmarked) [Compound 507],10 to 30
11,O=C1CCC(=O)N[C@H](Cc2ccsc2)C(=O)N[C@@H](Cc2ccc(-c3ccccc3)cc2)C(=O)N[C@H](Cc2ccccc2)C(=O)N[C@H](C(=O)O)Cc2ccc(cc2)N1 [Compound 122] ([d3Thi][Bip][dF][Phe(4-NH2)]-OH; linker N-4 via Suc),30 to 100
12,O=C1COc2ccc(cc2)C[C@@H](C(=O)O)NC(=O)[C@H](Cc2ccc(-c3ccncc3)cc2)NC(=O)[C@@H](Cc2ccc(-c3ccccc3)cc2)NC(=O)[C@H](Cc2cccs2)N1 [Compound 634],< 10
13,O=C(O)CNC(=O)[C@@H]1Cc2ccc(cc2)OCC(=O)N[C@@H](Cc2ccncc2)C(=O)N[C@H](Cc2ccc(-c3ccccc3)cc2)C(=O)N[C@@H](CCc2ccccc2)C(=O)N1 [Compound 558],< 10
14,O=C1COc2ccc(cc2)C[C@@H](C(=O)O)NC(=O)[C@H](Cc2ccccc2F)NC(=O)[C@@H](Cc2ccc(-c3ccccc3)cc2)NC(=O)[C@H](Cc2c[nH]c3ccccc23)N1 [Compound 733],< 10
15,O=C1COc2ccc(cc2)C[C@@H](C(=O)N[C@H](Cc2ccccc2)C(=O)O)NC(=O)[C@H](Cc2ccccc2)NC(=O)[C@H](Cc2ccc(-c3ccccc3)cc2)NC(=O)[C@H](Cc2cccs2)N1 [Compound 228],< 10
16,O=C1COc2ccc(cc2)C[C@@H](C(=O)O)NC(=O)[C@H](CCc2ccccc2)NC(=O)[C@@H](Cc2ccc(-c3ccncc3)cc2)NC(=O)[C@H](Cc2ccncc2)N1 [Compound 666],10 to 30
17,O=C1COc2ccc(cc2)C[C@@H](C(=O)O)NC(=O)[C@@H](Cc2ccccc2)NC(=O)[C@@H](Cc2ccc(-c3ccccc3)cc2)NC(=O)[C@H](Cc2cccs2)N1 [Compound 210],> 100
18,C[C@H](NC(=O)[C@@H]1Cc2ccc(cc2)OCC(=O)N[C@@H](Cc2cccs2)C(=O)N[C@H](Cc2ccc(-c3ccccc3)cc2)C(=O)N[C@@H](CCc2ccccc2)C(=O)N1)C(=O)O [Compound 473],< 10
19,COc1ccc(C[C@@H]2NC(=O)[C@H](Cc3cccs3)NC(=O)COc3ccc(cc3)C[C@@H](C(=O)O)NC(=O)[C@H](Cc3ccccc3)NC2=O)cc1OC [Compound 406],> 100

row,Structure (SMILES),IC50 [µM]
1,O=C1COc2ccc(cc2)C[C@@H](C(=O)O)NC(=O)[C@@H](Cc2ccccc2)NC(=O)[C@H](Cc2ccc(-c3ccccc3)cc2)NC(=O)[C@@H](Cc2cccs2)N1 [Compound 8],30 to 100
2,O=C1COc2ccc(cc2)C[C@@H](C(=O)O)NC(=O)[C@@H](CCc2ccccc2)NC(=O)[C@H](Cc2ccc(C(F)(F)F)cc2)NC(=O)[C@@H](CCc2ccccc2)N1 [Compound 151],30 to 100
3,"CC(=O)O[C@H]1C(=O)Nc2ccc(cc2)C[C@H](C(=O)O)NC(=O)[C@@H](CCc2ccccc2)NC(=O)[C@H](Cc2ccc(Cl)cc2Cl)NC(=O)[C@@H](Cc2ccccc2)NC(=O)[C@@H]1OC(C)=O [Compound 220] ([dF][Phe(2,4-Cl2)][d(hPhe)][dPhe(4-NH2)]-OH; linker N-4 via Tartaroyl(2R,3R-(OAc)2))",10 to 30
4,O=C1COc2ccc(cc2)C[C@@H](C(=O)O)NC(=O)[C@H](CCc2ccccc2)NC(=O)[C@@H](Cc2ccc(-c3ccccc3)cc2)NC(=O)[C@H](Cc2c[nH]c3ccccc23)N1 [Compound 734],< 10
5,CC(C)(C)c1ccc(C[C@@H]2NC(=O)[C@@H](Cc3ccc(-c4ccccc4)cc3)NC(=O)[C@H](Cc3cccs3)NC(=O)COc3ccc(cc3)C[C@@H](C(=O)O)NC2=O)cc1 [Compound 635],< 10
6,O=C1CCC(=O)N[C@H](Cc2cccnc2)C(=O)N[C@@H](Cc2ccc(-c3ccccc3)cc2)C(=O)N[C@H](Cc2ccccc2)C(=O)N[C@H](C(=O)O)Cc2ccc(cc2)N1 [Compound 126] ([d3Pal][Bip][dF][Phe(4-NH2)]-OH; linker N-4 via Suc),> 100
7,O=C1N[C@H](Cc2ccccc2)C(=O)N[C@@H](C(=O)O)Cc2ccc(cc2)NC(=O)[C@H](O)[C@@H](O)C(=O)N[C@H](Cc2cccs2)C(=O)N[C@H]1Cc1ccc(Cl)cc1Cl [Compound 244],30 to 100
8,O=C1CCC(=O)N[C@H](CC2CCCCC2)C(=O)N[C@@H](Cc2ccc(-c3ccccc3)cc2)C(=O)N[C@H](Cc2ccccc2)C(=O)N[C@H](C(=O)O)Cc2ccc(cc2)N1 [Compound 124] ([dCha][Bip][dF][Phe(4-NH2)]-OH; linker N-4 via Suc),> 100
9,O=C1COc2ccc(cc2)C[C@@H](C(=O)NCCO)NC(=O)[C@@H](CCc2ccccc2)NC(=O)[C@H](Cc2ccc(-c3ccccc3)cc2)NC(=O)[C@@H](Cc2cccs2)N1 [Compound 322],10 to 30
10,O=C1CCC(=O)N[C@H](Cc2cccs2)C(=O)N[C@@H](Cc2ccc(-c3ccccc3)cc2)C(=O)N[C@H](Cc2ccccc2)C(=O)N[C@H](C(=O)N2CCC[C@H]2C(=O)O)Cc2ccc(cc2)N1 [Compound 199] ([d2Thi][Bip][dF][Phe(4-NH2)]P-OH; linker N-4 via Suc),> 100
11,O=C1COc2ccc(cc2)C[C@@H](C(=O)N[C@@H](Cc2ccccc2)C(=O)O)NC(=O)[C@H](CCc2ccccc2)NC(=O)[C@@H](Cc2ccc(-c3ccccc3)cc2)NC(=O)[C@H](Cc2ccc(-c3ccccc3)cc2)N1 [Compound 574],> 100
12,O=C1COc2ccc(cc2)C[C@H](C(=O)N[C@H](CCc2ccccc2)C(=O)O)NC(=O)[C@H](Cc2ccccc2F)NC(=O)[C@@H](Cc2ccc(-c3ccccc3)cc2)NC(=O)[C@H](Cc2c[nH]c3ccccc23)N1 [Compound 735],10 to 30
13,O=C1CCC(=O)N[C@@H](Cc2cccs2)C(=O)N[C@H](Cc2ccc(-c3ccccc3)cc2)C(=O)N[C@H](Cc2ccccc2)C(=O)N[C@H](C(=O)O)Cc2ccc(cc2)N1 [Compound 494] ([2Thi][dBip][dF][Phe(4-NH2)]-OH; linker N-4 via Suc),> 100
14,N#Cc1ccccc1C[C@H]1NC(=O)[C@H](O)[C@@H](O)C(=O)Nc2ccc(cc2)C[C@@H](C(=O)O)NC(=O)[C@@H](Cc2ccccc2)NC(=O)[C@H](Cc2ccc(-c3ccccc3)cc2)NC1=O [Compound 314],10 to 30
15,O=C(O)[C@H]1Cc2ccc(cc2)NC(=O)[C@H](O)[C@@H](O)C(=O)N[C@H](Cc2cccs2)C(=O)N[C@H](Cc2ccc(-c3ccccc3)cc2)C(=O)N[C@H](Cc2ccccc2)C(=O)N1 [Compound 276],> 100
16,O=C(O)[C@@H]1Cc2ccc(cc2)NC(=O)[C@H](O)[C@@H](O)C(=O)N[C@H](Cc2cccs2)C(=O)N[C@@H](Cc2ccc(C(F)(F)F)cc2)C(=O)N[C@H](Cc2ccccc2)C(=O)N1 [Compound 178],> 100
17,O=C1COc2ccc(cc2)C[C@@H](C(=O)O)NC(=O)[C@H](CCc2ccccc2)NC(=O)[C@@H](Cc2ccc(-c3ccccc3)cc2)NC(=O)[C@H](Cc2ccc(-c3ccc(F)cc3)cc2)N1 [Compound 698],< 10
18,O=C1CCC(=O)N[C@H](Cc2cccs2)C(=O)N[C@@H](CCc2ccccc2)C(=O)N[C@H](Cc2ccccc2)C(=O)N[C@H](C(=O)O)Cc2ccc(cc2)N1 [Compound 91] ([d2Thi][hPhe][dF][Phe(4-NH2)]-OH; linker N-4 via Suc),> 100
